According to patent publication US20230372382A1, “USE OF ADENOSINE DIPHOSPHATE RIBOSE FOR ADJUVANT THERAPY WITH RADIATION AND/OR ANTI-CANCER TREATMENT” (PearlsInMires Co., Ltd., priority 2021, published 2023):

Assays:
AsPC-1 cells = experiment: ADP-ribose quantitative analysis (ELISA) in cancer cells; format: cell-based; conditions: 8 μM ADP-ribose, 24 hours, P<0.001
Procedure: (§1) After culturing, the culture medium was removed, the cells were washed with phosphate-buffered saline, and then RIPA buffer was added and the cells were left on ice for 20 minutes. After scraping the cells, the cells were put in a centrifuge tube and centrifuged for 10 minutes at 10,000 g and 4° C. The supernatant was obtained, and 1% SDS was added, and then the reaction product was boiled at 100° C. for 5 minutes and cooled on ice. The supernatant was centrifuged again at 10,000 g and 4° C. for 10 minutes to obtain the final supernatant, and ADP-ribose was quantitatively analyzed and compared using an ELISA analysis kit (Cell Biolabs, Inc., San Diego, CA, USA).
(§2) The medium of the cultured cells was removed, and the supernatant prepared by treatment with RIPA buffer and 1% sodium dodecyl sulfate (SDS) was used for ELISA analysis to detect and analyze ADP-ribose.

Caki-1 cells [1] = experiment: as above; format: cell-based; conditions: 16 μM ADP-ribose, 24 hours, P<0.001
Procedure: as §1, §2

H1975 cells = experiment: as above; format: cell-based; conditions: 4 μM ADP-ribose, 24 hours, P<0.001
Procedure: as §1, §2

HCT116 cells = experiment: as above; format: cell-based; conditions: 8 μM ADP-ribose, 24 hours, P<0.001
Procedure: as §1, §2

U-87MG cells = experiment: as above; format: cell-based; conditions: 8 μM ADP-ribose, 24 hours, P<0.001
Procedure: as §1, §2

Hep G2 cells = experiment: Cancer cell death verification (MTT cell viability); format: cell-based
Procedure: 3×10^3 Brain cancer (U-87MG), lung cancer (H1975), pancreatic cancer (Aspc-1), liver cancer (Hep G2), breast cancer (MDA-MB-231), colon cancer (HCT116), kidney cancer (Caki-1), gastric cancer (SNU-1) and ovarian cancer (OVCAR-3) cells were cultured in a 96-well plate under conditions of 37° C. and 5% CO2 for 24 hours, and then each cancer cell was treated with ADP-ribose at each concentration. After culturing for 24 hours under conditions of 37° C. and 5% CO2 again, 10 μl of 3-(4,5-dimethylthiazol-2-yl)-2,5-diphenyltetrazolium bromide reagent was added to each well and reacted for 1 hour. After the reaction was completed, the reagent was removed, 200 μl of dimethyl sulfoxide was added to each well, and the absorbance was measured to determine the concentration of half-lethality and maximum lethality compared to untreated cells.
3×10^3 Hep G2 cells were cultured in a 96-well plate for 24 hours under conditions of 37° C. and 5% CO2, treated with ADP-ribose at concentrations of 0.125, 0.25, 0.5, 1, 2, 4, 8, 16, and 32 μM, respectively, and cultured again for 24 hours under conditions of 37° C. and 5% CO2. Then, 10 μl of 3-(4,5-dimethylthiazol-2-yl)-2,5-diphenyltetrazolium bromide reagent was added to each well and reacted for 1 hour. After the reaction was completed, the reagent was removed, 200 μl of dimethyl sulfoxide was added to each well, and the absorbance was measured to confirm cell viability.

OVCAR-3 cells = experiment: as above; format: cell-based; conditions: OVCAR-3, 32 μM ADP-ribose, 24 hours
Procedure: 3×10^3 SNU-1 or OVCAR-3 cells were cultured in a 96-well plate for 24 hours under conditions of 37° C. and 5% CO2, treated with ADP-ribose at concentrations of 32 μM, respectively, and cultured again for 24 hours under conditions of 37° C. and 5% CO2. Then, 10 μl of 3-(4,5-dimethylthiazol-2-yl)-2,5-diphenyltetrazolium bromide reagent was added to each well and reacted for 1 hour. After the reaction was completed, the reagent was removed, 200 μl of dimethyl sulfoxide was added to each well, and the absorbance was measured to confirm cell viability.

[2] = test system: Pancreatic cancer (AsPC-1) cells; experiment: Xenograft model, subcutaneous ADP-ribose, tumor volume; format: in vivo, BALB/c nude mice; conditions: AsPC-1 xenograft, 3 times a week, control about 2155.8
Procedure: Pancreatic cancer (AsPC-1) or kidney cancer (Caki-1) cells (1×10^7 cells) were inoculated into 5-week-old BALB/c nude mice on the back flank, and the mice were grown up to approximately 150 mm^3 of the tumor volume. Then, three concentrations of ADP-ribose were administered subcutaneously, intravenously, and orally 3 times a week. The tumor size was measured every 6 days using a digital caliper, and the changes in tumor volume were compared for each group.
Pancreatic cancer (AsPC-1) cells (1×10^7) were inoculated into 5-week-old BALB/c nude mice on the back flank, and the mice were divided into four groups: the control group (Control) and groups injected subcutaneously with 2, 20, and 40 mg/kg of ADP-ribose. When the tumors were grown to a volume of approximately 150 mm^3, each concentration of ADP-ribose was subcutaneously injected 3 times a week. The tumor size was measured using a digital caliper, and the results of changes in tumor volume were compared by the group.

[3] = test system: Lung cancer (H1975) cells; experiment: Xenograft model, combination with anti-cancer drug, tumor volume; format: in vivo, BALB/c nude mice
Procedure: Brain (U-87MG), lung (H1975), pancreatic (AsPC-1), or liver (Hep G2) cells (1×10^7 cells) were inoculated into 5-week-old BALB/c nude mice on the back flank, respectively. Then, when tumors were grown to a volume of approximately 150 mm^3, the mice were divided into the control group (control), an anti-cancer drug alone treatment group, and a combination treatment group. […] The tumor size was measured every 6 days using a digital caliper, and the results of changes in tumor volume were compared by the group.
Lung cancer (H1975) cells (1×10^7) were inoculated into 5-week-old BALB/c nude mice on the back flank, and the mice were divided into three groups: the control group (Control), single oral administration of 1 mg/kg of osimertinib, and combination administration of osimertinib+10 mg/kg of ADP-ribose. When the tumors were grown to a volume of approximately 150 mm^3, osimertinib was administered orally twice a week, and ADP-ribose at 10 mg/kg was injected subcutaneously 3 times a week. The tumor size was measured using a digital caliper, and the results of changes in tumor volume were compared by the group.

Caki-1 cells [4] = experiment: Change over time in intracellular ADP-ribose, radiation versus ADP-ribose treatment (ELISA); format: cell-based; conditions: Caki-1, 16 μM ADP-ribose, even after 24 hours; after radiation back to untreated level from 8 hours
Procedure: (§3) Brain cancer (U-87MG), kidney cancer (Caki-1), pancreatic cancer (AsPC-1), or breast cancer (MDA-MB-231) cells were cultured in a 6-well plate, respectively, and the cells were divided into the untreated group, the radiation-treated group, and the ADP-ribose-treated group. Irradiation was performed using an X-Rad 320 irradiator (Precision X-ray, North Branford, CT, USA), and cancer cells were treated with a total of 1, 2, and 5 Gy at a dose rate of 300 kVp and 150 cGy/min using an X-ray beam filter composed of 12.5 mA and 2.0 mm Al, respectively. Before treatment and at 4, 8, 16, and 24 hours after treatment, the medium was removed, the cells were washed with phosphate-buffered saline, and then RIPA buffer was added and the products were left on ice for 20 minutes. After scraping the cells, the cells were put in a centrifuge tube and centrifuged for 10 minutes at 10,000 g and 4° C. The supernatant was obtained, and 1% SDS was added, and then the reaction product was boiled at 100° C. for 5 minutes and cooled on ice. The supernatant was centrifuged again at 10,000 g and 4° C. for 10 minutes to obtain the final supernatant, and ADP-ribose was quantitatively analyzed using an ELISA analysis kit (Cell Biolabs, Inc., San Diego, CA, USA). […]

MDA-MB-231 cells = experiment: as above; format: cell-based; conditions: MDA-MB-231, 16 μM ADP-ribose, even after 24 hours; after radiation back to untreated level from 16 hours
Procedure: as §3

[5] = ADP-ribose 10 mg/kg s.c. in combination with osimertinib 1 mg/kg, P<0.001

In the case of `Nc1ncnc2c1ncn2[C@@H]1O[C@H](COP(=O)(O)OP(=O)(O)OC[C@H]2O[C@@H](O)C(O)C2O)C(O)C1O` (some centres unmarked) [ADP-ribose, adenosine diphosphate ribose], the “amount of ADP-ribose in cells compared to the control group” value (AsPC-1 cells) is reported as “remarkably increased significantly”, the “amount of ADP-ribose in cells compared to the control group” value (Caki-1 cells [1]) is reported as “remarkably increased significantly” and the “amount of ADP-ribose in cells compared to the control group” value (H1975 cells) is reported as “remarkably increased significantly”. For the same compound, the “amount of ADP-ribose in cells compared to the control group” value (HCT116 cells) was “remarkably increased significantly”, the “amount of ADP-ribose in cells compared to the control group” value (U-87MG cells) was “remarkably increased significantly” and the “maximum lethal dose (concentration at which almost all cells were killed)” value (Hep G2 cells; Hep G2, 24 hours, MTT) was 32 µM. The “cancer cell growth under a microscope” value (Hep G2 cells; Hep G2, ADP-ribose treated vs control, FIG. 5A) was “inhibited from growing and killed”, the IC50 (Hep G2 cells; Homo sapiens, HepG2, 24 h, read-out: half-lethal dose (concentration at which about half of the cells were killed)) was ~4 µM and the “cell death compared to the control group” value (OVCAR-3 cells) was “killed significantly”. The final tumor volume ([2]; 2 mg/kg subcutaneous) was 1015.8 mm^3, the final tumor volume ([2]; 20 mg/kg subcutaneous) was 496.6 mm^3 and the final tumor volume ([2]; 40 mg/kg subcutaneous) was 336.2 mm^3. For the same compound, the “reduction of tumor volume compared to the control group” value [3, 5] was “about 81%”, the “reduction of tumor volume compared to the group treated with osimertinib alone” value [3, 5] was “about 77%” and the final tumor volume ([3]; ADP-ribose 10 mg/kg subcutaneous 3 times a week in combination with osimertinib 1 mg/kg, control about 2265.5) was “about 424.7 mm^3”. For the same compound, the “amount of ADP-ribose in the cells over time compared to the control group” value (Caki-1 cells [4]) was “maintained a significant (P<0.001) increase” and the “amount of ADP-ribose in the cells over time compared to the control group” value (MDA-MB-231 cells) was “maintained a significant (P<0.001) increase”.
